Reference: publication PMC6100056, “Antitumor Effects and Delivery Profiles of Menahydroquinone-4 Prodrugs with Ionic or Nonionic Promoiety to Hepatocellular Carcinoma Cells” (Molecules : A Journal of Synthetic Chemistry and Natural …, 2018)
Structures can show the parent of a compound that is named as a salt.

Columns and labels:
[1] = Uptake of MKH-ester derivatives in HCC cells (Michaelis-Menten kinetics); assay type: in vitro ADME; details: human, Michaelis-Menten fit, 95% confidence interval in square brackets
Protocol: (§1) To assess the uptake of the intrinsic MKH-ester derivatives as the first step of MKH delivery into HCC cells, the velocities of uptake of MKH-ester derivatives were plotted and fitted with the Michaelis--Menten model (as shown in Figure 3), and the calculated kinetic parameters were determined (Table 1). All three derivatives increased in both PLC/PRF/5 and SK-Hep-1 cells in a dose-dependent manner. The uptake of MKH-SUC was clearly higher than that of MKH-DMG and MKH-ACT at all concentrations examined. The ratio of the […] (Vmax/Km) for MKH-SUC was about 5- to 10-fold higher than those for MKH-ACT and MKH-DMG in both cell lines.
(§2) HCC cells were plated at 1.5 × 10^5 cells/well in 6-well plates and allowed to attach for 48 h. Cells were cultured in medium containing MK-4, MKH-ACT, MKH-DMG or MKH-SUC for various intervals. After the drug exposure, media were removed, and cells were washed three times with PBS. Cells were collected in 1 mL of PBS and sonicated. The cell homogenates were combined with an equal volume of methanol and three times volume of n-hexane, vortexed for 2 min and centrifuged at 1750× g for 10 min. The organic layer was evaporated under N2 gas. The residue was reconstituted with 100 μL of methanol, sonicated for 10 s and subjected to LC-UV or LC-MS/MS analysis, as described below. The protein concentration of the cell homogenate was determined using a BCA protein assay kit.
(§3) The LC system was the same as that described in the 4.8.1 LC-MS/MS section, and the UV detector was a Prominence SPD-20A (Shimadzu Corp., Kyoto, Japan). Separations were performed on the same column mentioned in the 4.8.1 LC-MS/MS section and monitored at a wavelength of 240 nm. The mobile flow was a binary gradient: (A) 0.1% acetic acid in water and (B) 0.1% acetic acid in methanol. The total flow rate was 0.3 mL/min; 0 min at 80% B, 1 min at 80% B, 4.0 min at 100% B, 7.0 min at 100% B and 8.0 min at 80% B. The Column temperature was 40 °C. The retention times were as follows: MKH-DMG, 9.2 min; MKH-ACT, 8.2 min; and MKH-SUC, 6.6 min.
(§4) For the determination of Km and Vmax for the uptake and enzymatic activation of MKH-esters, concentration-dependency data were fit to the Michaelis--Menten equation:V = Vmax·[S]/(Km + [S])(1) where V represents the velocity of action between the substrate and transportation/enzymatic reaction, [S] refers to the concentration of the substrate and Km is defined as the concentration of substrate at the half-maximal rate of action (Vmax). Data were analyzed by GraphPad Prism (GraphPad Software).

PLC/PRF/5 cells = assay: as above; assay type: in vitro ADME; details: for Vmax (uptake of MKH-ester): PLC/PRF/5 cells, Michaelis-Menten fit, 95% confidence interval in square brackets
Protocol: as §1, §2, §3, §4

SK-Hep-1 cells = assay: as above; assay type: in vitro ADME; details: Michaelis-Menten fit, 95% confidence interval in square brackets
Protocol: as §1, §2, §3, §4

esterase = assay: Regeneration (hydrolysis) of MKH-ester derivatives to MKH in S9 fractions; assay type: in vitro ADME; details: human, pH 7.4, 37 °C, Michaelis-Menten fit, 95% confidence interval in square brackets
Protocol: To assess the regeneration to the parental form, MKH, from the MKH-ester derivatives by an esterase of HCC, MKH-ACT, MKH-DMG and MKH-SUC were incubated at 37 °C in S9 fractions obtained from PLC/PRF/5 or SK-Hep-1 cells. The velocities of MK-4 generated in the S9 fractions were plotted as the amount of MKH, because MKH is rapidly oxidized to MK-4 during drug extraction and measurement. The regeneration versus […] profile was fitted by the Michaelis--Menten model (shown in Figure 4) and the kinetic parameters were calculated (Table 2). The regeneration velocities of MKH-ACT in both PLC/PRF/5 and SK-Hep-1 cells reached a plateau at about 3 μM MKH-ACT. MKH-DMG reached a plateau in PLC/PRF/5 and SK-Hep-1 cells at 25 μM and about 6 μM MKH-DMG, respectively. MKH-SUC reached a plateau in PLC/PRF/5 and SK-Hep-1 cells at about 0.6 μM and about 1.5 μM MKH-SUC, respectively. The level scale of MKH regeneration from MKH-SUC was about 100-fold higher than those of MKH-ACT and MKH-DMG.
The hydrolysis of the esters was performed at 37 °C in S9 fractions of PLC/PRF/5 and SK-Hep-1 cells after ultrasonic homogenization and centrifugation (10,000× g, 1 h) in isotonic phosphate buffer (pH 7.4). Stock solutions of each ester were made in the same manner as the cell viability assay, and the solutions were diluted with 0.1% w/v albumin in PBS. The enzymatic reactions were initiated by adding 5 μL of the diluted of each ester into amber test tubes containing 95 μL of preheated S9 fractions. A BCA protein assay (PIERCE/Thermo Fisher Scientific Inc., Waltham, MA, USA) was used to determine protein concentrations, and the final S9 concentration was adjusted to 1.0 mg of protein/mL in PBS. The solutions were incubated at 37 °C, and at appropriate times, the aliquots from the reaction were combined with an equal volume of methanol and three times volume of n-hexane. The samples were vortexed for 2 min and centrifuged at 1750× g for 10 min. The upper layer (n-hexane) was collected and evaporated under nitrogen. The residue was reconstituted with 100 μL of methanol, sonicated for 10 s and subjected to LC-MS/MS analysis as described below.
The LC-MS/MS analysis was performed with the same instrument under the same conditions as in an earlier report, except for the following MS/MS-multiple reaction monitoring (MRM) setting and retention times: MRM: m/z 532→171, [M + H]^+ MKH-ACT adduct; m/z 664→187, [M + NH4]^+ MKH-SUC adduct; retention times: MKH-ACT, 1.7 min; and MKH-SUC, 1.1 min.
as §4

[2] = test system: cyclin D1 and CDK4 in PLC/PRF/5 cells; assay: Western blotting of cell cycle regulatory proteins; assay type: cell-based; details: 24 h after treatment
Protocol: We previously reported that MKH-DMG regulates cell cycle-related proteins as a mechanism of MKH-DMG-induced growth inhibition in PLC/PRF/5, Hep3B and SK-Hep-1 cells. Thus, to clarify the mechanisms of the growth inhibition induced by the MKH-ester prodrugs, we analyzed cell cycle-related proteins using Western blotting (Figure 7).
HCC cells were plated at 1.5 × 10^5 cells/well in 6-well plates and allowed to attach for 48 h. Cells were treated with MK-4, MKH-ACT, MKH-DMG or MKH-SUC for 24 h. Western blotting was performed as described previously.

[3] = PLC/PRF/5 cells (HCC cell line), PLC/PRF/5 cells
[4] = S9 fraction of PLC/PRF/5 cells, S9 of PLC/PRF/5 cells
[5] = S9 fraction of SK-Hep-1 cells, S9 of SK-Hep-1 cells

Km [1, 3] [µM]	Km ([1]; SK-Hep-1 cells (HCC cell line)) [µM]	Km (esterase; [4]) [µM]	Km (esterase; [5]) [µM]	Vmax/Km of uptake, higher than those for MKH-ACT and MKH-DMG (PLC/PRF/5 cells; in both cell lines (PLC/PRF/5 and SK-Hep-1))	SMILES	Vmax (uptake of MKH-ester) (PLC/PRF/5 cells)	Vmax (uptake of MKH-ester) (SK-Hep-1 cells)	Effect on cyclin D1 and CDK4 expression compared with controls [2]
31.9	227	1.42	1.32		CC(=O)Oc1c(C)c(C/C=C(\C)CC/C=C(\C)CC/C=C(\C)CCC=C(C)C)c(OC(C)=O)c2ccccc12 [MKH-ACT, Menahydroquinone-4 1,4-bis acetate]	2.76 [1.70 to 3.81] nmol·mg of Protein^−1·h^−1	20.3 [−9.47 to 50.0] nmol·mg of Protein^−1·h^−1	did not affect
447	556	13.6	3.24		CC(C)=CCC/C(C)=C/CC/C(C)=C/CC/C(C)=C/Cc1c(C)c(OC(=O)CN(C)C)c2ccccc2c1OC(=O)CN(C)C [MKH-DMG, Menahydroquinone-4 1,4-bis-N,N-dimethylglycinate hydrochloride]	28.9 [−4.27 to 62.1] nmol·mg of Protein^−1·h^−1	62.6 [4.69 to 121] nmol·mg of Protein^−1·h^−1	clearly suppressed
712	381	0.399	0.74	5- to 10 fold	CC(C)=CCC/C(C)=C/CC/C(C)=C/CC/C(C)=C/Cc1c(C)c(OC(=O)CCC(=O)O)c2ccccc2c1OC(=O)CCC(=O)O [MKH-SUC, Menahydroquinone-4 1,4-bis hemisuccinate]	345 [84.0 to 606] nmol·mg of Protein^−1·h^−1	261 [74.7 to 448] nmol·mg of Protein^−1·h^−1	clearly suppressed
